Results: US20100197679A1, “COMPOUNDS” (Glaxo Group Limited, priority 2007, published 2010)
Structures can show the parent of a compound that is named as a salt. Where two headings read alike, the source gives them in different places.

Key:
[1] = tested on: Mycobacterium tuberculosis H37Rv; assay: Mycobacterium tuberculosis H37Rv Inhibition Assay (MIC, resazurin fluorescence); type: cell-based; conditions: ATCC 25618 / H37Rv
[2] = Whole-cell antimicrobial activity assay, broth microdilution (CLSI M7-A7), MIC; type: cell-based; conditions: two-fold dilutions 0.016 to 16 mcg/mL, at least one of the listed Gram-positive/Gram-negative organisms, at least one exemplified salt or free base form, read-out: MIC against at least one of the organisms listed
Experimental: Whole-cell antimicrobial activity was determined by broth microdilution using the Clinical Laboratory Standards Institute (CLSI) recommended procedure, Document M7-A7, “Methods for Dilution Susceptibility Tests for Bacteria that Grow Aerobically”. The compounds were tested in serial two-fold dilutions ranging from 0.016 to 16 mcg/mL.
The minimum inhibitory concentration (MIC) was determined as the lowest concentration of compound that inhibited visible growth. A mirror reader was used to assist in determining the MIC endpoint.
Compounds were evaluated against Gram-positive organisms, including Staphylococcus aureus, Streptococcus pneumoniae, Streptococcus pyogenes, Enterococcus faecalis and Enterococcus faecium.
In addition, compounds were evaluated against Gram-negative organisms including Haemophilus influenzae, Moraxella catarrhalis, Escherichia coli, Pseudomonas aeruginosa, Proteus mirabilis, Enterobacter cloacae, Enterobacter aerogenes, Klebsiella pneumoniae, Acinetobacter baumanii and Stenotrophomonas maltophilia.

[3] = H37Rv strain (ATCC25618), Middlebrook 7H9+ADC, six days at 37° C., resazurin read after 48 hours, read-out: MIC value

COc1ccc2ncc(=O)n(-c3cnc4c(c3)C[C@@H](O)[C@@H](NCc3cc5c(nn3)OCCO5)C4)c2n1 (relative stereo) [Example 13, Cis-4-{7-[(6,7-Dihydro[1,4]dioxino[2,3-c]pyridazin-3-ylmethyl)amino]-6-hydroxy-5,6,7,8-tetrahydro-3-quinolinyl}-6-(methyloxy)pyrido[2,3-b]pyrazin-3(4H)-one dihydrochloride]
MIC [1, 3]: ≤ 1.1 µg/mL

COc1ccc2ncc(=O)n(-c3cnc4c(c3)CCC(NCc3cc5c(cn3)OCCO5)C4)c2n1 (stereo not drawn) [Example 8, 4-{7-[(2,3-Dihydro[1,4]dioxino[2,3-c]pyridin-7-ylmethyl)amino]-5,6,7,8-tetrahydro-3-quinolinyl}-6-(methyloxy)pyrido[2,3-b]pyrazin-3(4H)-one hydrochloride]
MIC [1, 3]: ≤ 1.1 µg/mL

COc1ccc2ncc(=O)n(-c3cnc4c(c3)CCC(NCc3cc5c(nn3)OCCO5)C4)c2n1 (stereo not drawn) [Example 7, 4-{7-[(6,7-Dihydro[1,4]dioxino[2,3-c]pyridazin-3-ylmethyl)amino]-5,6,7,8-tetrahydro-3-quinolinyl}-6-(methyloxy)pyrido[2,3-b]pyrazin-3(4H)-one hydrochloride]
MIC [1, 3]: ≤ 1.1 µg/mL

COc1ccc2ncc(=O)n(-c3cnc4c(c3)OCC(NCc3cc5c(cn3)OCCO5)C4)c2n1 (stereo not drawn) [Example 17, 4-{3-[(2,3-Dihydro[1,4]dioxino[2,3-c]pyridin-7-ylmethyl)amino]-3,4-dihydro-2H-pyrano[3,2-b]pyridin-7-yl}-6-(methyloxy)pyrido[2,3-b]pyrazin-3(4H)-one fumarate]
MIC [2]: 16 µg/mL

COc1ccc2ncc(=O)n(-c3cnc4c(c3)C[C@@H](O)[C@@H](NCc3cc5c(cn3)OCCO5)C4)c2n1 (relative stereo) [Example 14, Cis-4-{7-[(2,3-Dihydro[1,4]dioxino[2,3-c]pyridin-7-ylmethyl)amino]-6-hydroxy-5,6,7,8-tetrahydro-3-quinolinyl}-6-(methyloxy)pyrido[2,3-b]pyrazin-3(4H)-one]
MIC [1, 3]: ≤ 1.1 µg/mL

COc1ccc2ncc(=O)n(-c3cnc4c(c3)C[C@@H](O)[C@H](NCc3cc5c(cn3)OCCO5)C4)c2n1 (racemic) [Example 18, 4-{(6R/S,7R/S)-7-[(2,3-Dihydro[1,4]dioxino[2,3-c]pyridin-7-ylmethyl)amino]-6-hydroxy-5,6,7,8-tetrahydro-3-quinolinyl}-6-(methyloxy)pyrido[2,3-b]pyrazin-3(4H)-one dihydrochloride]
MIC ([1]; read-out: MIC value, H37Rv strain (ATCC25618), Middlebrook 7H9+ADC, six days at 37° C., resazurin read after 48 hours): ≤ 1.1 µg/mL
